Data from paper PMC11061149, “Protein mimetic 2D FAST rescues alpha synuclein aggregation mediated early and post disease Parkinson’s phenotypes” (Nature Communications, 2024).
Where “and” joins values, the source holds several entries; their conditions need not be identical. Equal entries are not always repeated.

System: HEK293 cells stably expressing αS-A53T-YFP
Assay: ProteoStat dye assay and confocal imaging, ligand post treatment, αS fibers templated intracellular aggregation
Format: cell-based, human
Method: To test the antagonist activity of NS163 against intracellular αS aggregation, we utilized HEK293 cells, which stably express αS-A53T-YFP[23],[24],[50]. The endogenous monomeric αS-A53T-YFP template into fibers when transfected with exogenously added αS fibers in the presence of Lipofectamine 3000 (Fig. 3a)[23],[24],[50]. In this assay, preformed fibers of αS (5 µM monomer concentration) were introduced to the HEK cells, followed by the introduction of NS163 to the cells after 8 h, which is the time required for the internalization of aS fibers, as we have shown recently. The HEK cells were incubated for an additional […], which is the total time (24 h) required for the complete maturation of aS inclusions in the HEK cells. To test the effect of the NS163 on the intracellular inclusions (αS-A53T-YFP), we used confocal imaging and a ProteoStat dye-based assay recently developed in our lab[24]. […] NS163 was able to reduce the intracellular inclusions of αS by 76% and 90% at 10 µM and 25 µM, respectively, measured using the ProteoStat dye-based assay (Fig. 5h, +NS163). […] To test their antagonist activity against intracellular αS aggregation, we first determined the cell permeability of the tripyridyls using the PAMPA (Fig. 5a, Supplementary Fig. 18a). […]

SMILES: Cc1ccc(NC(=O)c2ccc(NC(=O)c3ccc([N+](=O)[O-])c(NCCc4c[nH]c5ccccc45)n3)c(NCC3CCCCC3)n2)c(OCC(=O)O)n1 [NS132]
- ProteoStat dye intensity (raw), individual trials (5 μM αS fibers, ligand 10 uM added after 8 h): 108 and 126 and 118 and 122 and 111 and 132 and 128 and 121 and 105 and 116 and 120 and 113
- reduction of intracellular inclusions of αS (ProteoStat) (ligand 10 µM added 8 h after 5 µM αS fibers): 47%
